The test system of the series is CCRIS mutagenicity, Ames/micronucleus/aberration tests. As to the kind of experiment: CCRIS mutagenicity studies.
Setting [1] is: Test System: MOUSE LYMPHOMA, Strain/Indicator: L5178Y (TK+/TK-), Metabolic Activation: RAT, LIVER, S-9, AROCLOR 1254, Method: SUSPENSION/PLATE.

Active and inactive are the calls of the source. The rule behind the calls is not given here.

The results in this text go back to PubChem BioAssay AID1259407 (Chemical Carcinogenesis Research Information System (CCRIS), 2018).

`ClC=C(Cl)Cl`: the mutagenic call runs as follows: (End Point: IN VITRO CHROMOSOMAL ABERRATIONS, Test System: CHINESE HAMSTER LUNG FIBROBLAST CELLS (CHL/IU), Metabolic Activation: NONE) “inactive; negative”; (End Point: IN VITRO CHROMOSOMAL ABERRATIONS, Test System: CHINESE HAMSTER LUNG FIBROBLAST CELLS (CHL/IU), Metabolic Activation: RAT, LIVER, S-9, PHENOBARBITAL AND 5,6-BENZOFLAVONE) “inactive; negative”; (End Point: IN VITRO CHROMOSOMAL ABERRATIONS, Test System: CHINESE HAMSTER OVARY CELLS, Metabolic Activation: NONE) “inactive; negative; precipitation occurred at all doses”; (End Point: IN VITRO CHROMOSOMAL ABERRATIONS, Test System: CHINESE HAMSTER OVARY CELLS, Metabolic Activation: RAT, LIVER, S-9, AROCLOR 1254) “inactive; negative; precipitation occurred at all doses”; (End Point: IN VITRO MICRONUCLEUS, Test System: V79 CELLS, Metabolic Activation: NONE) “inactive; negative”; (End Point: IN VITRO MICRONUCLEUS, Test System: V79 CELLS, Metabolic Activation: RAT, LIVER, S-9, AROCLOR 1254) “inactive; negative”. Besides, the mutagenic call (Test System: AMES SALMONELLA TYPHIMURIUM, Strain/Indicator: TA97, Metabolic Activation: NONE, Method: STANDARD PLATE) is “active; positive”; the mutagenic call (Test System: AMES SALMONELLA TYPHIMURIUM, Strain/Indicator: TA97, Metabolic Activation: RAT, LIVER, S-9, AROCLOR 1254, Method: STANDARD PLATE) is “active; positive”; the mutagenic call (Test System: AMES SALMONELLA TYPHIMURIUM, Strain/Indicator: TA98, Metabolic Activation: HAMSTER, LIVER, S-9, AROCLOR 1254, Method: DESICCATOR) is “inactive; negative”; the mutagenic call (Test System: AMES SALMONELLA TYPHIMURIUM, Strain/Indicator: TA98, Metabolic Activation: HAMSTER, LIVER, S-9, AROCLOR 1254, Method: PREINCUBATION) is “inactive; negative”; the mutagenic call (Test System: AMES SALMONELLA TYPHIMURIUM, Strain/Indicator: TA98, Metabolic Activation: NONE, Method: DESICCATOR) is “inactive; negative”; the mutagenic call (Test System: AMES SALMONELLA TYPHIMURIUM, Strain/Indicator: TA98, Metabolic Activation: NONE, Method: PREINCUBATION) was “inactive; negative”. For the same molecule, the mutagenic call by setting is: (Test System: AMES SALMONELLA TYPHIMURIUM, Strain/Indicator: TA98, Metabolic Activation: NONE, Method: STANDARD PLATE) “inactive; negative”; (Test System: AMES SALMONELLA TYPHIMURIUM, Strain/Indicator: TA98, Metabolic Activation: RAT, LIVER, S-9, AROCLOR 1254, Method: DESICCATOR) “inactive; negative”; (Test System: AMES SALMONELLA TYPHIMURIUM, Strain/Indicator: TA98, Metabolic Activation: RAT, LIVER, S-9, AROCLOR 1254, Method: PREINCUBATION) “inactive; negative”; (Test System: AMES SALMONELLA TYPHIMURIUM, Strain/Indicator: TA98, Metabolic Activation: RAT, LIVER, S-9, AROCLOR 1254, Method: STANDARD PLATE) “active; positive”; (Test System: AMES SALMONELLA TYPHIMURIUM, Strain/Indicator: TA100, Metabolic Activation: HAMSTER, LIVER, S-9, AROCLOR 1254, Method: DESICCATOR) “inactive; negative”; (Test System: AMES SALMONELLA TYPHIMURIUM, Strain/Indicator: TA100, Metabolic Activation: HAMSTER, LIVER, S-9, AROCLOR 1254, Method: PREINCUBATION) “inactive; negative”. In addition, the mutagenic call is, setting by setting: (Test System: AMES SALMONELLA TYPHIMURIUM, Strain/Indicator: TA100, Metabolic Activation: MOUSE, LIVER, S-9, AROCLOR 1254, Method: DESICCATOR) “active; positive”; (Test System: AMES SALMONELLA TYPHIMURIUM, Strain/Indicator: TA100, Metabolic Activation: NONE, Method: DESICCATOR) “inactive; negative”; (Test System: AMES SALMONELLA TYPHIMURIUM, Strain/Indicator: TA100, Metabolic Activation: NONE, Method: PREINCUBATION) “inactive; negative”; (Test System: AMES SALMONELLA TYPHIMURIUM, Strain/Indicator: TA100, Metabolic Activation: NONE, Method: STANDARD PLATE) “inactive; negative”; (Test System: AMES SALMONELLA TYPHIMURIUM, Strain/Indicator: TA100, Metabolic Activation: NONE, Method: VAPOR CHAMBER) “inactive; negative”; (Test System: AMES SALMONELLA TYPHIMURIUM, Strain/Indicator: TA100, Metabolic Activation: RAT, LIVER, S-9, AROCLOR 1254, Method: DESICCATOR) “inactive; negative”. In addition, the mutagenic call is “inactive; negative” (Test System: AMES SALMONELLA TYPHIMURIUM, Strain/Indicator: TA100, Metabolic Activation: RAT, LIVER, S-9, AROCLOR 1254, Method: PREINCUBATION); “inactive; negative” (Test System: AMES SALMONELLA TYPHIMURIUM, Strain/Indicator: TA100, Metabolic Activation: RAT, LIVER, S-9, AROCLOR 1254, Method: STANDARD PLATE); “inactive; negative” (Test System: AMES SALMONELLA TYPHIMURIUM, Strain/Indicator: TA102, Metabolic Activation: S-9, Method: STANDARD PLATE); “inactive; negative” (Test System: AMES SALMONELLA TYPHIMURIUM, Strain/Indicator: TA104, Metabolic Activation: NONE, Method: STANDARD PLATE); “inactive; negative” (Test System: AMES SALMONELLA TYPHIMURIUM, Strain/Indicator: TA104, Metabolic Activation: RAT, LIVER, S-9, AROCLOR 1254, Method: STANDARD PLATE); “inactive; negative” (Test System: AMES SALMONELLA TYPHIMURIUM, Strain/Indicator: TA1535, Metabolic Activation: HAMSTER, LIVER, S-9, AROCLOR 1254, Method: PREINCUBATION). Further, the mutagenic call reads like this: (Test System: AMES SALMONELLA TYPHIMURIUM, Strain/Indicator: TA1535, Metabolic Activation: NONE, Method: DESICCATOR) “active; positive”; (Test System: AMES SALMONELLA TYPHIMURIUM, Strain/Indicator: TA1535, Metabolic Activation: NONE, Method: PREINCUBATION) “inactive; negative”; (Test System: AMES SALMONELLA TYPHIMURIUM, Strain/Indicator: TA1535, Metabolic Activation: NONE, Method: VAPOR CHAMBER) “inactive; negative”; (Test System: AMES SALMONELLA TYPHIMURIUM, Strain/Indicator: TA1535, Metabolic Activation: RAT, LIVER, S-9, AROCLOR 1254, Method: DESICCATOR) “active; positive”; (Test System: AMES SALMONELLA TYPHIMURIUM, Strain/Indicator: TA1535, Metabolic Activation: RAT, LIVER, S-9, AROCLOR 1254, Method: PREINCUBATION) “inactive; negative”; (Test System: AMES SALMONELLA TYPHIMURIUM, Strain/Indicator: TA1537, Metabolic Activation: HAMSTER, LIVER, S-9, AROCLOR 1254, Method: PREINCUBATION) “inactive; negative”. Further, the mutagenic call runs as follows: (Test System: AMES SALMONELLA TYPHIMURIUM, Strain/Indicator: TA1537, Metabolic Activation: NONE, Method: PREINCUBATION) “inactive; negative”; (Test System: AMES SALMONELLA TYPHIMURIUM, Strain/Indicator: TA1537, Metabolic Activation: RAT, LIVER, S-9, AROCLOR 1254, Method: PREINCUBATION) “inactive; negative”; (Test System: AMES SALMONELLA TYPHIMURIUM, Strain/Indicator: TA2638, Metabolic Activation: S-9, Method: STANDARD PLATE) “inactive; negative”; (Test System: E. COLI, Strain/Indicator: WP2 (PKM101), Metabolic Activation: S-9, Method: STANDARD PLATE) “inactive; negative”; (Test System: E. COLI, Strain/Indicator: WP2 UVRA (PKM101), Metabolic Activation: S-9, Method: STANDARD PLATE) “inactive; negative”; (Test System: MOUSE LYMPHOMA, Strain/Indicator: L5178Y (TK+/TK-), Metabolic Activation: NONE, Method: SUSPENSION/PLATE) “inactive; negative”. Under setting [1], the mutagenic call was “active; positive”.
Regarding `C/C=C1/C[C@@H](C)[C@](C)(OC(C)=O)C(=O)OC/C2=C/CN(C)CC[C@@H](OC1=O)C2=O`, the mutagenic call (Test System: UDS RAT HEPATOCYTES, Strain/Indicator: THY INCORP, Metabolic Activation: NONE, Method: AUTORADIOGRAPHY) is “active; positive”.
With `CCCS`, the mutagenic call is, setting by setting: under setting [1], “active; positive. reevaluation of results: equivocal”; (Test System: Mouse lymphoma, Strain/Indicator: L5178Y (tk+/tk-), Metabolic Activation: None, Method: Suspension/plate) “inactive; negative”.
